Kd data for 43 compounds are collected here from patent US20250388560A1, “AROMATIC COMPOUND AND USE THEREOF” (HITGEN INC., priority 2023, published 2025).

For this experiment, the target named is TRIM21 protein (Homo sapiens (Human), UniProt P19474). Briefly: SPR binding assay (Biacore 8K) of compounds to immobilised TRIM21 protein. Particulars: 25° C., steady state affinity model (1:1 binding model), read-out: TRIM21 Kd Test Value. As to the method: The protein fixation buffer, the running buffer A and the running buffer B were prepared and filtered through a […] membrane prior to use.
Sequence of TRIM21 protein (P19474 whole entry, species assumed): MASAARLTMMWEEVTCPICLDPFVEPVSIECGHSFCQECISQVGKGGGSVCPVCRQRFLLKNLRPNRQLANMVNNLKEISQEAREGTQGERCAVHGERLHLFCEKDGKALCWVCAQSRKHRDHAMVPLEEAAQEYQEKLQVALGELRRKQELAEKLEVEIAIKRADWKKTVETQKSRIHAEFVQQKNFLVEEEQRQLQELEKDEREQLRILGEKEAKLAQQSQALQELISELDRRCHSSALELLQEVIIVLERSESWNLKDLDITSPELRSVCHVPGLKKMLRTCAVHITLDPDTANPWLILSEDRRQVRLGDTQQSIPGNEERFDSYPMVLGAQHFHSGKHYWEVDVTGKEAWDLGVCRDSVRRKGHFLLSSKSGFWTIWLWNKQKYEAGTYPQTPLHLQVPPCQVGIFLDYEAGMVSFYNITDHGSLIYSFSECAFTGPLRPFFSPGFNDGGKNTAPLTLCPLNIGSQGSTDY
A surface of a CM5 chip was washed for three times with 50 mM NaOH at a flow rate of 60.0 μL/min and 60 seconds per wash. […] The CM5 chip was activated for 420 s at a flow rate of 6.0 μL/min. A strep tactin XT fixation buffer fixation built in the twin strep tag capture kit was used to prepare a 50.0 µg/mL Strep tactin XT. The Strep tactin XT was injected at a flow rate of 5.0 μL/min for 600 s. After injection of […], 1 M ethanolamine from the amine coupling kit was injected at a flow rate of 6.0 μL/min for 7 min to close the surface of the CM5 chip.
The running buffer A was used as the protein fixation buffer. The protein fixation buffer and the TRIM21 protein were mixed to prepare a 40.0 µg/mL mixed solution. The 40.0 µg/mL mixed solution was injected at flow rate of 5.0 μL/min for 600 s, and the TRIM21 protein was captured on the CM5 chip through Strep tactin XT.
A compound to be tested was diluted with 100% DMSO to a concentration that was 100 times a required final concentration and mixed evenly, and […] of such solution was added into […] of the running buffer A, followed by centrifugation at 15,000 rpm for 5 min to obtain an X compound solution contained with 1% DMSO.
The X compound was subjected to 8-point, 2-fold serial dilutions with the running buffer B, starting from an initial concentration. The diluted X compound was transferred into the 96-well plate for sample injection.
A Biacore 8K Control software was started, and tests were run in a 25° C. environment. During program running, the running buffer B was used at a flow rate of 30.0 μL/min. The running buffer B was injected for three times to complete balance. […] An injection needle was cleaned with 50% DMSO after each injection.
A response value of binding of the X compound and the TRIM21 protein was corrected after deducting a reference channel and 0 concentration. A binding affinity Kd was matched by a steady state affinity model (1:1 binding model) through the Biacore Insight Evaluation Software.
The binding affinities between X compounds of the embodiments of the present disclosure were tested according the above method.
In the case of `CC(C)c1ccccc1-c1ccc(C(=O)N(C)CC2CCCCC2)c(S(C)(=O)=O)c1` [Compound 46], the Kd is 100 to 1000 nM.
The figure for `COc1cc(CN(C)C(=O)c2ccc(-c3ccccc3SC)cc2S(C)(=O)=O)ccn1` [Compound 16] is 100 to 1000 nM; for `COc1ccccc1-c1ccc(C(=O)N(C)[C@H](C)C2CCCC2)c(S(C)(=O)=O)c1` [Compound 33] it is 1000 to 10000 nM; for `CSc1ccccc1-c1ccc(C(=O)N(C)[C@H](C)C2CC2)c(S(C)(=O)=O)c1` [Compound 19] it is 100 to 1000 nM.
The figure for `CSc1ccccc1-c1ccc(C(=O)N(C)[C@H](C)C2CCC2)c(S(C)(=O)=O)c1` [Compound 14] is 100 to 1000 nM; for `COc1ccccc1-c1ccc(C(=O)N(C)[C@H](C)C2CCC2)c(S(C)(=O)=O)c1` [Compound 24] it is 1000 to 10000 nM.
As to `CSc1ccccc1-c1ccc(C(=O)N(C)Cc2ccsc2)c(S(C)(=O)=O)c1` [Compound 4], the Kd is 100 to 1000 nM.
`CSc1ccccc1-c1ccc(C(=O)N(C)Cc2cc[nH]c(=O)c2)c(S(C)(=O)=O)c1` [Compound 18]: the Kd lay in the range of 1000 to 10000 nM.
As for `COc1ccccc1-c1ccc(C(=O)N(C)CC2CCC(O)CC2)c(S(C)(=O)=O)c1` (stereo not shown) [Compound 35], the figure is 100 to 1000 nM; as for `COc1ccccc1-c1ccc(C(=O)N(C)CC2CCOCC2)c(S(C)(=O)=O)c1` [Compound 34], 100 to 1000 nM; as for `CN(CC1CCCCC1)C(=O)c1ccc(-c2ccc(F)cc2)cc1S(C)(=O)=O` [Compound 54], 1000 to 10000 nM.
The figure for `CN(CC1CCCCC1)C(=O)c1ccc(-c2ccccc2C(C)(C)O)cc1S(C)(=O)=O` [Compound 42] is 100 to 1000 nM; for `COc1ccccc1-c1ccc(C(=O)N(C)[C@H](C)C2CC2)c(S(C)(=O)=O)c1` [Compound 32] it is 1000 to 10000 nM; for `COc1ccccc1-c1ccc(C(=O)N(C)C(C)C2COC2)c(S(C)(=O)=O)c1` (stereo not shown) [Compound 31] it is 1000 to 10000 nM.
The figure for `CSc1ccccc1-c1ccc(C(=O)N(C)C2CCCCC2)c(S(C)(=O)=O)c1` [Compound 9] is 1000 to 10000 nM; for `CSc1ccccc1-c1ccc(C(=O)N(C)c2ccccc2)c(S(C)(=O)=O)c1` [Compound 12] it is 1000 to 10000 nM.
For the compound `COc1ccccc1-c1ccc(C(=O)N(C)Cc2cc[nH]c(=O)c2)c(S(C)(=O)=O)c1` [Compound 28], the Kd fell in the range of 10 to 100 nM.
The figure for `CN(CC1CCCCC1)C(=O)c1ccc(-c2ccccc2C(F)(F)F)cc1S(C)(=O)=O` [Compound 39] is 100 to 1000 nM; for `CN(CC1CCCCC1)C(=O)c1ccc(-c2ccccc2F)cc1S(C)(=O)=O` [Compound 45] it is 1000 to 10000 nM; for `CSc1ccccc1-c1ccc(C(=O)N(C)CC2CCCCC2)c(S(C)(=O)=O)c1` [Compound 2] it is 100 to 1000 nM.
As for `CSc1ccccc1-c1ccc(C(=O)N(C)CC2(F)CCCCC2)c(S(C)(=O)=O)c1` [Compound 6], the figure is 100 to 1000 nM; as for `CCC(CC)CN(C)C(=O)c1ccc(-c2ccccc2SC)cc1S(C)(=O)=O` [Compound 10], 100 to 1000 nM.
As to `COc1ccccc1-c1ccc(C(=O)N(C)CC2COC2)c(S(C)(=O)=O)c1` [Compound 30], the Kd lay within 1000 to 10000 nM.
Take `CSc1ccccc1-c1ccc(C(=O)N(C)[C@H](C)C2CCCC2)c(S(C)(=O)=O)c1` [Compound 20]: the Kd lay in the range of 100 to 1000 nM.
The figure for `CSc1ccccc1-c1ccc(C(=O)N(C)CC2CCCCC2(F)F)c(S(C)(=O)=O)c1` (stereo not shown) [Compound 5] is 1000 to 10000 nM; for `CN(CC1CCCCC1)C(=O)c1ccc(-c2cccc3ccoc23)cc1S(C)(=O)=O` [Compound 47] it is greater than 10000 nM; for `COc1cnccc1-c1ccc(C(=O)N(C)CC2CCCCC2)c(S(C)(=O)=O)c1` [Compound 43] it is 1000 to 10000 nM.
The figure for `CN(CC1CCCCC1)C(=O)c1ccc(-c2ccc(F)cc2C2CC2)cc1S(C)(=O)=O` [Compound 41] is 10 to 100 nM; for `CSc1ccccc1-c1ccc(C(=O)N(C)Cc2cc[nH]c2)c(S(C)(=O)=O)c1` [Compound 11] it is 10 to 100 nM.
Take `COc1cc(F)ccc1-c1ccc(C(=O)N(C)CC2CCCCC2)c(S(C)(=O)=O)c1` [Compound 52]: the Kd lay within 1 to 10 nM.
For `Cc1ccccc1-c1ccc(C(=O)N(C)CC2CCCCC2)c(S(C)(=O)=O)c1` [Compound 38], the Kd was 100 to 1000 nM.
For the compound `COc1ccccc1-c1ccc(C(=O)N(C)CC2CCOC2)c(S(C)(=O)=O)c1` (stereo not shown) [Compound 25], the dissociation constant (Kd) lay in the range of 1000 to 10000 nM.
As for `COc1ccccc1-c1ccc(C(=O)N(C)CC2CCCCC2)c(S(C)(=O)=O)c1` [Compound 37], the figure is 100 to 1000 nM; as for `CSc1ccccc1-c1ccc(C(=O)N(C)CC2CCOC2)c(S(C)(=O)=O)c1` (stereo not shown) [Compound 15], 100 to 1000 nM; as for `CSc1ccccc1-c1ccc(C(=O)N(C)Cc2ccc3c(c2)OCO3)c(S(C)(=O)=O)c1` [Compound 3], 10 to 100 nM.
The figure for `CSc1ccccc1-c1ccc(C(=O)N(C)CC2CN(C(C)=O)C2)c(S(C)(=O)=O)c1` [Compound 13] is 100 to 1000 nM; for `CNC(=O)c1ccc(-c2ccccc2SC)cc1S(C)(=O)=O` [Compound 1] it is 100 to 1000 nM; for `CCc1ccccc1CN(C)C(=O)c1ccc(-c2ccccc2SC)cc1S(C)(=O)=O` [Compound 8] it is 100 to 1000 nM.
The figure for `CSc1ccccc1-c1ccc(C(=O)N(C)CC2CCOCC2)c(S(C)(=O)=O)c1` [Compound 23] is 10 to 100 nM; for `COc1ccccc1-c1ccc(C(=O)N(C)CC2CN(C(C)=O)C2)c(S(C)(=O)=O)c1` [Compound 26] it is greater than 10000 nM.
For the compound `COc1cc(CN(C)C(=O)c2ccc(-c3ccccc3OC)cc2S(C)(=O)=O)ccn1` [Compound 27], the Kd is 10 to 100 nM.
The figure for `COc1ccccc1-c1ccc(C(=O)N(C)Cc2cc[nH]c2)c(S(C)(=O)=O)c1` [Compound 29] is 10 to 100 nM; for `CSc1ccccc1-c1ccc(C(=O)N(C)Cc2cnoc2)c(S(C)(=O)=O)c1` [Compound 7] it is 100 to 1000 nM.
